Data from the NIST ThermoML archive (doi:10.1021/je030147g).

Columns and labels:
[1] = refractive index (Na D-line) (dimensionless); conditions: 101.33 kPa, Liquid
[2] = 101.33 kPa, Liquid
[3] = refractive index (Na D-line) (dimensionless); xn = mol fraction of the nth substance listed; conditions: 101.33 kPa, Liquid
[4] = xn = mol fraction of the nth substance listed; conditions: 101.33 kPa, Liquid

c1ccncc1 [pyridine]
Conditions	mass density, 298.15 K [kg/m3]	mass density, 303.15 K [kg/m3]	mass density, 308.15 K [kg/m3]	refractive index, 298.15 K	refractive index, 303.15 K	refractive index, 308.15 K	speed of sound, 298.15 K [m/s]	viscosity, 298.15 K [mPa·s]	viscosity, 303.15 K [mPa·s]	viscosity, 308.15 K [mPa·s]
[1]	–	–	–	1.5062	1.5025	1.5016	–	–	–	–
[2]	979	973.7	968.6	–	–	–	1412	0.885	0.82	0.766

ClC(Cl)=C(Cl)Cl [tetrachloroethene]
Conditions	mass density, 298.15 K [kg/m3]	mass density, 303.15 K [kg/m3]	mass density, 308.15 K [kg/m3]	refractive index, 298.15 K	refractive index, 303.15 K	refractive index, 308.15 K	speed of sound, 298.15 K [m/s]	viscosity, 298.15 K [mPa·s]	viscosity, 303.15 K [mPa·s]	viscosity, 308.15 K [mPa·s]
[1]	–	–	–	1.5036	1.5005	1.4978	–	–	–	–
[2]	1616	1607.5	1597.5	–	–	–	1033	0.875	0.831	0.791

CCCCCCCCCCCCCC [tetradecane]
Conditions	mass density, 298.15 K [kg/m3]	mass density, 303.15 K [kg/m3]	mass density, 308.15 K [kg/m3]	refractive index, 298.15 K	refractive index, 303.15 K	refractive index, 308.15 K	speed of sound, 298.15 K [m/s]	viscosity, 298.15 K [mPa·s]	viscosity, 303.15 K [mPa·s]	viscosity, 308.15 K [mPa·s]
[1]	–	–	–	1.4282	1.426	1.4236	–	–	–	–
[2]	760.7	757	753.3	–	–	–	1315	2.032	1.827	1.653

CCCCN(CCCC)CCCC [tributylamine] + ClC(Cl)=C(Cl)Cl
Conditions	mass density, [4] [kg/m3]	refractive index, [3]	speed of sound, [4] [m/s]	viscosity, [4] [mPa·s]
298.15 K, x1 = 0.104	1433.8	1.4872	1052	0.917
298.15 K, x1 = 0.2059	1295.5	1.4748	1073	0.958
298.15 K, x1 = 0.3068	1185.4	1.4659	1094	0.996
298.15 K, x1 = 0.4073	1095	1.4566	1116	1.033
298.15 K, x1 = 0.4967	1026.9	1.4506	1136	1.065
298.15 K, x1 = 0.6069	955.4	1.4437	1162	1.104
298.15 K, x1 = 0.699	904.2	1.4396	1184	1.136
298.15 K, x1 = 0.8018	854.3	1.435	1209	1.172
298.15 K, x1 = 0.9007	812	1.4316	1235	1.206
298.15 K, x1 = 1	773.9	1.4276	1262	1.239
303.15 K, x1 = 0.104	1425.9	1.4842	–	0.869
303.15 K, x1 = 0.2059	1288.1	1.4721	–	0.902
303.15 K, x1 = 0.3068	1181.4	–	–	0.93
303.15 K, x1 = 0.4073	1089.1	1.4539	–	0.96
303.15 K, x1 = 0.4967	1021.5	1.4479	–	0.99
303.15 K, x1 = 0.6069	949.9	1.4415	–	1.018
303.15 K, x1 = 0.699	899.4	1.4367	–	1.053
303.15 K, x1 = 0.8018	849.4	1.4325	–	1.081
303.15 K, x1 = 0.9007	808	1.4289	–	1.104
303.15 K, x1 = 1	769.2	1.4255	–	1.124
308.15 K, x1 = 0.104	1418.2	1.481	–	0.818
308.15 K, x1 = 0.2059	1281.3	1.4692	–	0.844
308.15 K, x1 = 0.3068	1172.5	1.4594	–	0.869
308.15 K, x1 = 0.4073	1083.2	1.451	–	0.893
308.15 K, x1 = 0.4967	1015.9	1.445	–	0.914
308.15 K, x1 = 0.6069	945.2	1.4392	–	0.94
308.15 K, x1 = 0.699	894.7	1.434	–	0.961
308.15 K, x1 = 0.8018	845.3	1.4298	–	0.984
308.15 K, x1 = 0.9007	803.4	1.4263	–	1.006
308.15 K, x1 = 1	765.7	1.4228	–	1.028

CCCCN(CCCC)CCCC [tributylamine] + ClC=C(Cl)Cl
x1 = 1
Conditions	mass density, 298.15 K [kg/m3]	mass density, 303.15 K [kg/m3]	mass density, 308.15 K [kg/m3]	refractive index, 298.15 K	refractive index, 303.15 K	refractive index, 308.15 K	speed of sound, 298.15 K [m/s]	viscosity, 298.15 K [mPa·s]	viscosity, 303.15 K [mPa·s]	viscosity, 308.15 K [mPa·s]
[3]	–	–	–	1.4276	1.4255	1.4228	–	–	–	–
[4]	773.3	769.2	765.7	–	–	–	1262	1.239	1.124	1.028

CCCCN(CCCC)CCCC [tributylamine] + c1ccncc1
Conditions	mass density, 298.15 K [kg/m3]	mass density, 303.15 K [kg/m3]	mass density, 308.15 K [kg/m3]	refractive index, 298.15 K	refractive index, 303.15 K	refractive index, 308.15 K	speed of sound, 298.15 K [m/s]	viscosity, 298.15 K [mPa·s]	viscosity, 303.15 K [mPa·s]	viscosity, 308.15 K [mPa·s]
[3], x1 = 0.0977	–	–	–	1.4866	1.483	1.4795	–	–	–	–
[3], x1 = 0.1951	–	–	–	1.4708	1.4685	1.4662	–	–	–	–
[3], x1 = 0.2949	–	–	–	1.4606	1.4574	1.4542	–	–	–	–
[3], x1 = 0.3938	–	–	–	1.4513	1.4491	1.447	–	–	–	–
[3], x1 = 0.4898	–	–	–	1.4464	1.4428	1.4392	–	–	–	–
[3], x1 = 0.5884	–	–	–	1.4403	1.4376	1.4348	–	–	–	–
[3], x1 = 0.6899	–	–	–	1.4359	1.4335	1.4311	–	–	–	–
[3], x1 = 0.7846	–	–	–	1.4333	1.43	1.4268	–	–	–	–
[3], x1 = 0.8869	–	–	–	1.4303	1.4277	1.4252	–	–	–	–
[3], x1 = 1	–	–	–	1.4276	1.4255	1.4228	–	–	–	–
[4], x1 = 0.0977	927.2	922.3	917.4	–	–	–	1363	0.895	0.833	0.771
[4], x1 = 0.1951	890.5	885.6	880.7	–	–	–	1333	0.914	0.849	0.783
[4], x1 = 0.2949	862.6	858	853.3	–	–	–	1308	0.941	0.872	0.804
[4], x1 = 0.3938	841.3	836.8	832.2	–	–	–	1290	0.971	0.898	0.825
[4], x1 = 0.4898	824.7	820.3	815.9	–	–	–	1282	1.002	0.925	0.848
[4], x1 = 0.5884	810.8	806.5	802.1	–	–	–	1278	1.038	0.957	0.876
[4], x1 = 0.6899	799	794.7	790.5	–	–	–	1275	1.077	0.993	0.909
[4], x1 = 0.7846	789.9	785.7	781.6	–	–	–	1271	1.122	1.031	0.94
[4], x1 = 0.8869	781.6	777.5	773.3	–	–	–	1266	1.175	1.077	0.979
[4], x1 = 1	773.9	769.2	765.7	–	–	–	1262	1.239	1.124	1.028

ClC=C(Cl)Cl [trichloroethene] + CCCCN(CCCC)CCCC
Conditions	mass density, 298.15 K [kg/m3]	mass density, 303.15 K [kg/m3]	mass density, 308.15 K [kg/m3]	refractive index, 298.15 K	refractive index, 303.15 K	refractive index, 308.15 K	speed of sound, 298.15 K [m/s]	viscosity, 298.15 K [mPa·s]	viscosity, 303.15 K [mPa·s]	viscosity, 308.15 K [mPa·s]
[3], x2 = 0	–	–	–	1.4752	1.4722	1.469	–	–	–	–
[3], x2 = 0.0996	–	–	–	1.4632	1.4604	1.4576	–	–	–	–
[3], x2 = 0.1953	–	–	–	1.4563	1.453	1.4495	–	–	–	–
[3], x2 = 0.2913	–	–	–	1.4502	1.4469	1.4436	–	–	–	–
[3], x2 = 0.3902	–	–	–	1.4448	1.4417	1.4386	–	–	–	–
[3], x2 = 0.4875	–	–	–	1.4402	1.4377	1.4352	–	–	–	–
[3], x2 = 0.5906	–	–	–	1.437	1.4343	1.4317	–	–	–	–
[3], x2 = 0.6843	–	–	–	1.4346	1.4315	1.4284	–	–	–	–
[3], x2 = 0.7846	–	–	–	1.4318	1.4295	1.427	–	–	–	–
[3], x2 = 0.8835	–	–	–	1.4298	1.4272	1.4246	–	–	–	–
[4], x2 = 0	1456.7	1447.1	1439.5	–	–	–	1028	0.595	0.571	0.549
[4], x2 = 0.0996	1299.3	1291.8	1284.4	–	–	–	1054	0.652	0.622	0.592
[4], x2 = 0.1953	1186.7	1180.1	1173.3	–	–	–	1084	0.713	0.675	0.637
[4], x2 = 0.2913	1098.3	1092.1	1086	–	–	–	1108	0.776	0.73	0.684
[4], x2 = 0.3902	1025.1	1019.6	1013.9	–	–	–	1129	0.842	0.788	0.734
[4], x2 = 0.4875	966.3	961	955.8	–	–	–	1151	0.909	0.846	0.783
[4], x2 = 0.5906	914.7	909.8	904.9	–	–	–	1170	0.978	0.907	0.835
[4], x2 = 0.6843	875	870.3	865.7	–	–	–	1187	1.041	0.962	0.882
[4], x2 = 0.7846	838.1	833.7	829.1	–	–	–	1205	1.105	1.018	0.93
[4], x2 = 0.8835	806.5	802.2	797.8	–	–	–	1227	1.167	1.071	0.976

CCN(CC)CC [triethylamine] + CCCCN(CCCC)CCCC
x2 = 0
Conditions	mass density, 298.15 K [kg/m3]	mass density, 303.15 K [kg/m3]	mass density, 308.15 K [kg/m3]	refractive index, 298.15 K	refractive index, 303.15 K	refractive index, 308.15 K	speed of sound, 298.15 K [m/s]	viscosity, 298.15 K [mPa·s]	viscosity, 303.15 K [mPa·s]	viscosity, 308.15 K [mPa·s]
[3]	–	–	–	1.3992	1.3958	1.3929	–	–	–	–
[4]	723.3	718.6	713.7	–	–	–	1123	0.367	0.349	0.332
